The values that follow come from US9944597B2, “Polysubstituted pyrroles having microtubule-disrupting, cytotoxic and antitumor activities and methods of use thereof” (THE BOARD OF REGENTS OF THE UNIVERSITY OF TEXAS SYSTEM, priority 2013, dated 2018).

The target in series [1] is colchicine binding site on tubulin (Sus scrofa, UniProt P02554). Briefly: Colchicine site binding, fluorometric assay.
In series [2] the test system is variety of cancer cell lines. Conditions: against cancer cell lines; cited from earlier work.
Series [3] concerns MDA-MB-435 (human melanoma cancer cells). In words: Antiproliferative SRB assay, MDA-MB-435. Conditions: Homo sapiens, MDA-MB-435, read-out: MDA-MB-435 Anti-Proliferative Activity, IC50. Format: cell-based. Summed up:
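After 24 h attachment, MDA-MB-435 cells were exposed to compounds for 48 h, then fixed with trichloroacetic acid. Cellular protein was quantified by sulforhodamine B staining. IC50 for proliferation inhibition was taken from the linear portion of log concentration–response curves.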

The subject of series [4] is HeLa (human cervical cancer cells). In words: Antiproliferative SRB assay, HeLa. Conditions: Homo sapiens, HeLa. Type of series: cell-based. Summed up: (§1)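 Cells attached and grew 24 h, then were exposed to compound for 48 h, TCA-fixed and protein stained with sulforhodamine B. IC50 taken from linear portion of log concentration-response curves; relative resistance = IC50 in expressing line / IC50 in parental line.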

Series [5] concerns SK-OV-3 (human ovarian cancer cells). In words: Antiproliferative SRB assay, SK-OV-3. Type of series: cell-based. The conditions noted are these: Homo sapiens.
In a further series the test system is HeLa WT-β-III cells. In words: Antiproliferative SRB assay, βIII-tubulin expressing HeLa. The conditions noted are these: for IC50: Homo sapiens, HeLa, Table 49, βIII tubulin expressing line, 48 hr, SRB assay; for Rr (β-III): relative resistance: IC50 of expressing line divided by IC50 of parental HeLa. Type of series: cell-based, human. Summed up:
as §1
(In general: Sulforhodamine B stains cellular protein and so reports cell mass.)

For a further series, the system named is SK-OV-3-MDR-1-6/6 cells. Briefly: Antiproliferative SRB assay, Pgp expressing SK-OV-3. Type of series: cell-based, human. The conditions noted are these: for IC50: Homo sapiens, SK-OV-3, Table 49, Pgp expressing line, 48 hr, SRB assay.
The next series deals with A-10 cells. Briefly: Cellular microtubule loss by indirect immunofluorescence. Type of series: cell-based, rat. Conditions: Rattus norvegicus, A10; Table 50; concentration causing approximately 50% loss of interphase microtubules; read-out: EC50 Values (nM) for Microtubule Loss in A-10 cells. Summed up:
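Rat embryonic vascular smooth muscle cells were treated across a range of compound concentrations. Microtubules were stained by indirect β-tubulin immunofluorescence, with DAPI for DNA. EC50 is the concentration giving about 50% interphase microtubule loss, scored visually, from curves over at least three experiments.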

The target in series [6] is T1, purified porcine brain tubulin (Sus scrofa, UniProt P02554).
T1 construct: of Purified Porcine Brain Tubulin; from tissue; host or cells: porcine brain
T1 sequence (P02554 whole entry): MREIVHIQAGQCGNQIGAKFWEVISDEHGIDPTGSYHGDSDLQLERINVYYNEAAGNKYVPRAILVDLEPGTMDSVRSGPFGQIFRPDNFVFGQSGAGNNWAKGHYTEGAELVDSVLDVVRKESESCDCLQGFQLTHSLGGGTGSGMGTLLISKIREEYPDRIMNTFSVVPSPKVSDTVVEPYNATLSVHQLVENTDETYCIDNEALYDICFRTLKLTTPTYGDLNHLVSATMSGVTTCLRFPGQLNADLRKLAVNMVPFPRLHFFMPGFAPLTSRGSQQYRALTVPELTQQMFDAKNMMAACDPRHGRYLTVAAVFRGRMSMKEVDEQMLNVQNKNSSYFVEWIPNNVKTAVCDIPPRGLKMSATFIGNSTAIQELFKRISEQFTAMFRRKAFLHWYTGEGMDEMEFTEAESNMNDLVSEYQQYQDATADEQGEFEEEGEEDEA
T1 sequence (P02550 whole entry partner): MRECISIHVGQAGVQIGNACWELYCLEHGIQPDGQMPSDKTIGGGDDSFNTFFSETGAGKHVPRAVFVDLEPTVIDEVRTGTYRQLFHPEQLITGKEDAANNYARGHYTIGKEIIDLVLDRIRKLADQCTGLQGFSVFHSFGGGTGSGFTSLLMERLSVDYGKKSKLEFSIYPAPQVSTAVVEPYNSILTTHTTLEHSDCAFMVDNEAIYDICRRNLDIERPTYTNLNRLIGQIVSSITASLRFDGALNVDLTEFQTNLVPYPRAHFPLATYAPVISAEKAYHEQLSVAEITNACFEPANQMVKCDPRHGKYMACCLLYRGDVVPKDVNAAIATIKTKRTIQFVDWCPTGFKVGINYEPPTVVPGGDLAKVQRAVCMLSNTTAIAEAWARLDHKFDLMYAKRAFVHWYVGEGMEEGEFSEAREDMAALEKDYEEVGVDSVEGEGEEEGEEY
Briefly: Inhibition of polymerization of purified tubulin (absorbance at 340 nm). Type of series: biochemical. Conditions: compound at 2 μM.

In the next series the test system is HeLa cells. Briefly: Cell cycle distribution by flow cytometry. Type of series: cell-based, human. Conditions: HeLa cells treated for 18 hr; FIG. 3: 25 nM NT-7-16, 12.5 nM paclitaxel. As for the experimental part: The effects of NT-7-16 on cell cycle distribution were determined. […] The cells were stained with Kirshan's reagent (Kirshan, Cell Biol. 66, 188-93 (1975)), and cell cycle distribution was measured using a Millipore Muse flow cytometer.
The effects of NT-7-16 on cell cycle distribution were determined. […] The cells were stained with Kirshan's reagent (Kirshan Cell Biol. 66, 188-93. (1975)), and cell cycle distribution was measured using a Millipore Muse flow cytometer.
A general note: In flow cytometry, cells or beads pass a laser one at a time.

The mark [7] stands for this setting: Table 48, 48 hr exposure, SRB assay.
Setting [8] is: Table 48, 48 hr exposure, read-out: HeLa Anti-Proliferative Activity, IC50.
The mark [9] stands for this setting: Table 49, parental line, 48 hr, read-out: HeLa IC50.

Where two headings read alike, the source gives them in different places.

Sequence of colchicine binding site on tubulin (P02554 whole entry): as the sequence (P02554 whole entry) above
Sequence of colchicine binding site on tubulin (P02550 whole entry partner): as the sequence (P02550 whole entry partner) above

With `CC[C@]1(O)C[C@@H]2CN(CCc3c([nH]c4ccccc34)[C@@](C(=O)OC)(c3cc4c(cc3OC)N(C)[C@H]3[C@@](O)(C(=O)OC)[C@H](OC(C)=O)[C@]5(CC)C=CCN6CC[C@]43[C@@H]65)C2)C1` [vinblastine, reference compound], the “effect on colchicine binding” value in series [1] (at 100 μM) was “no effect”. In addition, the “effect on colchicine binding (FIG. 9)” value in series [1] (result in words) is listed as “does not”.
In the case of `CCOC(=O)c1[nH]c(Br)c(-c2cc(OC)c(OC)c(OC)c2)c1Br` [4-[(3,4,5-trimethoxy)-phenyl]-3,5-dibromopyrrole 2-carboxylic acid ethyl ester], in series [2], the “fold less active than JG-03-14 in vitro” value is “more than 350 fold”.
The IC50 is the concentration that gives 50% inhibition. The EC50 is the midpoint of the concentration-response curve. One may read the inhibition as the share of the control response that was lost under treatment. Low values mean a weak effect, high ones a strong effect. For orientation: melting point means the temperature of the solid-liquid transition. Molecule `CCOC(=O)c1[nH]c(C=NOC)c(-c2ccc(OC)c(OC)c2OC)c1Br` (mixture of isomers) [Example 12, Cis/Trans-3-Bromo-4-(2,3,4-trimethoxyphenyl)-5-(O-methyl-oximino)-1H-pyrrole-2-carboxylic acid ethyl ester] showed a melting point of 125 to 128 °C. Besides, in [3] (setting [7]), the IC50 stood at 7.6 ± 0.5 nM. In addition, the IC50 in series [3] (Table 52) is 7.6 ± 0.5 nM. Moreover, in [4] (setting [8]), the concentration for half-maximal inhibition (IC50) worked out at 11.9 ± 1.3 nM. In addition, the IC50 in series [4] (setting [9]) was 11.9 ± 1.3 nM. Moreover, the IC50 in series [5] (SK-OV-3, Table 48, 48 hr exposure, read-out: SK-OV-3 Anti-Proliferative Activity, IC50) was 13.8 ± 0.9 nM. Moreover, the IC50 in [5] (SK-OV-3, Table 49, parental line, 48 hr, read-out: SK-OV-3 IC50) turned out to be 13.8 ± 0.9 nM. Moreover, in the series on HeLa WT-β-III cells, 12.5 ± 0.2 nM corresponded to half-maximal inhibition (IC50) and the “Rr (β-III)” value is 1.1. Besides, the IC50 in the series with SK-OV-3-MDR-1-6/6 cells was 17.5 ± 1.2 nM. Besides, the “Rr (Pgp)” value in the series on SK-OV-3-MDR-1-6/6 cells (relative resistance: IC50 of expressing line divided by IC50 of parental SK-OV-3) amounted to 1.3. For the same molecule, the EC50 in the series on A-10 cells was 22 nM. The molecule also registered an inhibition at 2 µM in series [6] of 99%.
For the molecule `CC(=O)O[C@H]1C(=O)[C@@]2(C)[C@H]([C@H](OC(=O)c3ccccc3)[C@]3(O)C[C@H](OC(=O)[C@H](O)[C@@H](NC(=O)c4ccccc4)c4ccccc4)C(C)=C1C3(C)C)[C@]1(OC(C)=O)CO[C@@H]1C[C@@H]2O` [paclitaxel, reference compound], the IC50 is 2 ± 0.1 nM in [3] (setting [7]); 1.5 ± 0.05 nM in [4] (setting [8]); 1.5 ± 0.05 nM in series [4] (setting [9]); 21.1 ± 1.8 nM in the series with HeLa WT-β-III cells; 2330 nM with SK-OV-3-MDR-1-6/6 cells. For the same molecule, in the series on HeLa WT-β-III cells, the “Rr (β-III)” value is listed as 14.1. Also, the cell cycle distribution result in the series on HeLa cells was “initiated mitotic accumulation”.
